For one compound, melting point results are on record in patent US6723720B2, “Pesticidal triazine-derivatives” (Novartis Animal Health US, Inc., priority 1999, dated 2004).

As a reminder, the melting point is the temperature of the solid-liquid transition.

As to `Fc1cccc(F)c1-c1cnnc(-c2ccc(-c3ccc(OC(F)(F)F)cc3)cc2)n1` [Example 1.6, 5-(2,6-Difluorophenyl)-3-(4′-trifluoromethoxybiphenyl-4-yl)-[1,2,4]triazine], the melting point was in the range of 159 to 160 °C.
